From US20240358721A1, “GASDERMIN-D INHIBITORS AND USES THEREOF FOR TREATING PULMONARY VASO-OCCLUSION” (UNIVERSITY OF PITTSBURGH-OF THE COMMONWEALTH SYSTEM OF …, priority 2021, published 2024) come the findings set out here.

In the assay the test system is SCD mice. In words: qFILM assessment of pulmonary vaso-occlusion in SCD mice IV administered oxy-Hb. The note with it: LDC7559 10 mg/kg, Z-VAD-FMK 0.004 μmol/kg; for Number of PVOs per Field of View (#PVOs/FOV) / number of large PVOs (with area>1000 μm^2) per FOV: IV 10 μmole/kg oxy-Hb with inhibitor vs oxy-Hb alone; for Number of PVOs per Field of View (#PVOs/FOV) / number of large PVOs (with area>1000 μm^2) per FOV / blood flow in the lung (rapidly transiting erythrocytes) / lung vaso-occlusion in representative qFILM images: NSA 20 mg/kg; for blood flow in the lung (rapidly transiting erythrocytes) / lung vaso-occlusion in representative qFILM images / large neutrophil-platelet aggregates occluding the arteriolar bottle-necks in the lung: IV 10 μmole/kg oxy-Hb with inhibitor; for large neutrophil-platelet aggregates occluding the arteriolar bottle-necks in the lung: Necrosulfonamide 20 mg/kg. Format: in vivo, mouse. The source says:
Quantitative fluorescence intravital lung microscopy (qFILM) was used to assess the absence or presence of platelet-neutrophil aggregate mediated pulmonary vaso-occlusion. Pulmonary microcirculation (pseudo-colored purple), neutrophils (red) and platelets (pseudo-colored green) were labeled in vivo by IV administration of FITC dextran, AF546-anti-Ly6G Ab and V450-anti-CD49b Ab, respectively. […] White arrows denote the direction of blood flow within the pulmonary arterioles. Alveoli are marked with asterisks. Scale bars 20 μm. The diameter of pulmonary arteriole in B-E is ˜22 μm, 32 μm, 31.5 μm, and 31 μm, respectively. […] Refer Online Data Supplement for details. […] The data for mice with SCD IV administered 10 oxy-Hb (n=5 mice; 75 FOVs) are included as black bars in FIGS. 1N and 1O for relative comparison. qFILM FOV size ˜65 536 μm^2. Data represent mean ±SE and are compared using Student t test. *P<0.05 (FIG. 1P) Schematic showing the main findings of the study. The sterile inflammatory milieu (DAMPs, IFN-I signaling, and ROS) in SCD promotes caspase-4 (humans) or caspase-11 (mouse)-dependent cleavage of neutrophil GSDMD into the active form GSDMD-NT, leading to the shedding of NETs in the liver microcirculation. Once shed, these NETs are carried by the blood as cNETs to the lung, where they promote neutrophil-platelet aggregation in the pulmonary arterioles, leading to PVO and lung injury (acute chest syndrome).
Intravital lung microscopy (experimental scheme shown in FIG. 1A) was conducted in live mice to assess whether preventing liver-to-lung embolization of cNETs by inhibiting or deleting GSDMD-signaling leads to amelioration of pulmonary vaso-occlusion. Although large neutrophil-platelet aggregates (marked with dotted ellipses) were seen occluding the arteriolar bottle-necks, leading to impaired blood flow in the lung of SCD mice IV administered 10 μmole/kg oxy-Hb (FIG. 1B), such aggregates were rare in the lung of SCD mice IV administered 10 μmole/kg oxy-Hb with 0.004 μmol/kg pan-caspase inhibitor Z-VAD-FMK (FIG. 1C) or 10 mg/kg GSDMD-NT inhibitor LDC7559 (FIG. 1D) or 20 mg/kg GSDMD-NT inhibitor Necrosulfonamide (FIG. 1E). […] The twofold higher dose of 20 μmole/kg IV oxy-Hb also led to the development of lung vaso-occlusion in WT but not Gsdmd^−/− mice (FIG. 2). […] P-selectin deficiency led to an approximately 50% reduction in pulmonary vaso-occlusion in SCD-Selp^−/− mice administered 10 μmole/kg IV oxy-Hb (FIG. 3), however, IV administration of oxy-Hb with GSDMD-NT inhibitor (LDC7559) led to further threefold (significant) reduction in pulmonary vaso-occlusions per FOV (FIGS. 1N and 4A, and FIG. 5) and absence of large pulmonary vaso-occlusions (area>1000 μm^2) per FOV (FIG. 10) in SCD-Selp^−/− mice.
Quantitative fluorescence intravital lung microscopy (qFILM) has been used widely for in vivo assessment of pulmonary vasoocclusion in mice with SCD [Bennewitz M F et al., (2017); Vats R, Brzoska T, Bennewitz M F, et al. (2020); Vats R, Tutuncuoglu E, Pradhan-Sundd T, Tejero J, Shaw G D, Sundd P. (2020); Bennewitz M F, Tutuncuoglu E, Gudapati S, et al. (2020)] In the current study, qFILM was used to assess pulmonary vaso-occlusion and detect NETs in the intact lung microcirculation of live mice following IV challenge with saline, oxy-hemoglobin (oxy-Hb), hemin, or lipo-polysaccharide with or without pretreatment with N-terminus active domain (GSDMD-NT) inhibitors LDC7559 [Sollberger G, Choidas A, Burn G L, et al. (2018)], NSA [Rathkey J K, Zhao J, Liu Z, et al. (2018)], Disulfiram [Hu J J, Liu X, Xia S, et al. (2020)], or the pan-caspase inhibitor Z-VAD-FMK [Sollberger G, Choidas A, Burn G L, et al. (2018)], haptoglobin [Belcher J D, Chen C, Nguyen J, et al. (2014)], or TLR4-inhibitor (TAK242) [Belcher J D, Chen C, Nguyen J, et al. (2014)]. qFILM was conducted with a Nikon multiphoton excitation fluorescence microscope and an APO LWD 25×water immersion objective with 1.1 NA. […]

Each structure is given as a SMILES string. Entries after “also recorded” stand apart in the source; their conditions may differ. Where a SMILES comes first, the peptide text is derived from it. The star is where a group is joined. Cbz = O=C(OCc1ccccc1)*; CH2F = FC*

For the compound `COc1nccnc1NS(=O)(=O)c1ccc(NC(=O)/C=C/c2ccc([N+](=O)[O-])s2)cc1` [Necrosulfonamide, necrosulfonamide], the “Number of PVOs per Field of View (#PVOs/FOV)” value is on record as “significantly reduced”, the “number of large PVOs (with area>1000 μm^2) per FOV” value (from here on “number of large PVOs … per FOV”) is on record as “significantly reduced”, the “blood flow in the lung (rapidly transiting erythrocytes)” value was “significantly improved” and the “lung vaso-occlusion in representative qFILM images” value (shortened to “lung vaso-occlusion”) is listed as “lack of pulmonary vaso-occlusion”. In addition, the “large neutrophil-platelet aggregates occluding the arteriolar bottle-necks in the lung” value is “rare”. Moreover, under “listed as NSA”, the “Number of PVOs per Field of View (#PVOs/FOV)” value is reported as “significantly less”, the “number of large PVOs … per FOV” value is given as “significantly less” and the “lung vaso-occlusion” value is given as “absence of lung vaso-occlusion”.
As to `COC(=O)C[C@H](NC(=O)[C@H](C)NC(=O)[C@@H](NC(=O)OCc1ccccc1)C(C)C)C(=O)CF` [Z-VAD-FMK] (Cbz-Val-Ala-Asp(OMe)-CH2F), the “Number of PVOs per Field of View (#PVOs/FOV)” value is “significantly less; also recorded: significantly reduced”, the “number of large PVOs … per FOV” value was “significantly less; also recorded: significantly reduced”, the “blood flow in the lung (rapidly transiting erythrocytes)” value is “significantly improved” and the “lung vaso-occlusion” value was “absence of lung vaso-occlusion; also recorded: lack of pulmonary vaso-occlusion”. In addition, the “large neutrophil-platelet aggregates occluding the arteriolar bottle-necks in the lung” value is reported as “rare”.
